According to patent publication US6340694B1, “Diarylbenzopyran derivatives as cyclooxygenase-2 inhibitors” (Pacific Corporation, priority 1998, dated 2002):

Legend:
[1] = target: T1, COX-2 (Mus musculus, UniProt Q05769); test: Evaluation of COX-2's inhibition efficacy (PGE2 radioimmuno assay, LPS-induced, aspirin-pretreated peritoneal macrophages); type: cell-based, C57BL/6 mouse; details: for inhibition at 0.1 µg/mL: 0.1 μg/ml; for inhibition at 1 µg/mL: 1 μg/ml; for inhibition at 10 µg/mL: 10 μg/ml
T1 construct: endogenous in cells; host or cells: peritoneal macrophages of C57BL/6 mouse, aspirin-pretreated, LPS-induced
T1 sequence (Q05769 18-604): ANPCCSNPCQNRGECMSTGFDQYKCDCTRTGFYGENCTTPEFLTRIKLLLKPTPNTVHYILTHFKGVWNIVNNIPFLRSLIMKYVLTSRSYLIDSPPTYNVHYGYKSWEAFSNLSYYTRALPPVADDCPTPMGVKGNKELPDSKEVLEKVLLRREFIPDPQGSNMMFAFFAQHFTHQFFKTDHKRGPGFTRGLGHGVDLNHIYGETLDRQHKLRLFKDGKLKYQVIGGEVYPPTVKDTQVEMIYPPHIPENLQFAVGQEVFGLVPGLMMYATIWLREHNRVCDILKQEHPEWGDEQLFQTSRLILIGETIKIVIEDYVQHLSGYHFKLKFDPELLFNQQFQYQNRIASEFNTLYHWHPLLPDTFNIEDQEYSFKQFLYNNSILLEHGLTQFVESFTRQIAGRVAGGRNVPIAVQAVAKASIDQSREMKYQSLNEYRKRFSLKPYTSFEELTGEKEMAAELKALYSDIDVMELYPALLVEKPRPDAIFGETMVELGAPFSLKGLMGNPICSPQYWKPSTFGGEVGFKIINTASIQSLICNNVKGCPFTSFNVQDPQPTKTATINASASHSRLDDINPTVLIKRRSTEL
Outline: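 C57BL/6 mouse peritoneal macrophages, adhered 2 h at 37 °C, were LPS-stimulated to induce COX-2. Cells were then treated 10 min with compound, followed by 10 min with 10 μM arachidonic acid (final). PGE2 in the supernatant was quantified by radioimmunoassay.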

[2] = target: T2, COX-1 (Mus musculus, UniProt P22437); test: Evaluation of COX-1's inhibition efficacy (macrophages without aspirin and LPS pre-treatment); type: cell-based, C57BL/6 mouse; details: for inhibition at 10 µg/mL: 10 μg/ml
T2 construct: there is no pre-treatment of aspirin and LPS in the adhesion of macrophage; endogenous in cells; host or cells: peritoneal macrophages of C57BL/6 mouse, without aspirin and LPS pre-treatment
T2 sequence (P22437 27-602): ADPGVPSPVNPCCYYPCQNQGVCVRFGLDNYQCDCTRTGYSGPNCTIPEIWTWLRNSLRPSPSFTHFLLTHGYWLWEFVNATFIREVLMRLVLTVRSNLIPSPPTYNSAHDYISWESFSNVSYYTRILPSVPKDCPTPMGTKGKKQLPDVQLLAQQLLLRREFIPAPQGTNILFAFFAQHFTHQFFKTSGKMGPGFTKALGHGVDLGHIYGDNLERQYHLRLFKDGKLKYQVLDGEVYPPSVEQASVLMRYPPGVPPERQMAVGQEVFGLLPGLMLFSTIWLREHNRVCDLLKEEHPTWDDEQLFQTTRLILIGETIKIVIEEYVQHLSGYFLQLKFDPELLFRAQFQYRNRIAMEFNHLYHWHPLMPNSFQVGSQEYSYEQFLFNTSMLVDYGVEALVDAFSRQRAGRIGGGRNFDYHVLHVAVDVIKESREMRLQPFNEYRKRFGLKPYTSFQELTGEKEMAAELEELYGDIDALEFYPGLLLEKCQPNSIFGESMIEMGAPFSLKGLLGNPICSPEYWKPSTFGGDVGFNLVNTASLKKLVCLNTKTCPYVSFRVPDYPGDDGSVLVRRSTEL
Description: Regarding the compounds in the above Examples and indomethacin, the inhibition efficacy of COX-2 and COX-1 are being measured by the following two methods.
After cleaning C57BL/6 mouse's abdomen by 70% EtOH, the skin of mouse's abdomen was eliminated cautiously not to harm peritomeum and 5 ml of cold PBS was poured into the abdominal cavity and in certain times later macrophage-bleeding abdominal-liquid was collected by syringe. By adding RPMI-1640 badge containing penicillin(100 unit/mt) and streptomycin([…]) to cell pellet obtained by centrifugation of collected liquid about 5 minutes in 1500 rpm, it was disperesed and also COX-1 existing in the cell was inactivated by treating with 500 μM aspirin. After putting 1 ml cell suspension having cell number of 1×10^6 cells/mu into each 24-well microtiter plates, macrophages were adhered to the bottom of plate by culturing in the condition of 5% CO2/95% O2, at a temperature of 37° C. for 2 hours. Other cells not being adhered to were eliminated by washing two times with PBS. The purity of macrophages obtained through this process was identified by differential counting. After adding RPMI-1640 badge(normally 5×10^5 cell/ml) containing 3% right fetal blood serum to macrophage and treating it with LPS(lipopolysaccharide) to make final concentration as 10 μg/ml, it was cultured in the condition of 5% CO2, at a temperature of 37° C. for 16 hours. After inducing COX-2 by LPS, the cell culture medium was eliminated and macrophages was washed two times with PBS. And 1 ml of RRPI-1640 badge was added to each well again and after treating them with sample with appropriate concentration, they were cultured at a temperature of 37i É for 10 minutes. And then treated them with arachidonic acid to make their final concentration as 10 μM and cultured them additional 10 minutes, all the supernatant liquid of reaction was obtained. The amount of PGE2 produced in the supernatant liquid of reaction was determined by the PGE2 radioimmuno assay. The 100% COX-2's activation is referenced by the difference of the amount of PGE2 produced in the supernatant liquid of reaction between with 10 μM arachidonic acid treatment and without 10 μM arachidonic acid treatment.
2. Evaluation of COX-1's Inhibition Efficacy
Following the same procedure as the above evaluation of COX-2's inhibition efficacy, but there is no pre-treatment of aspirin and LPS in the adhesion of macrophage.

[3] = test system: edema in mouse's ear; test: Depressant action on edema in mouse's ear (TPA-induced, myeloperoxidase); type: in vivo, ICR mouse; details: topical on ear, TPA 25 μg, 5 hours
Description: (§1) Regarding the compounds in some of the above Examples and indomethacin, depressant action on edema in mouse's ear and depressant action on edema in mouse's foot being induced by carrageenan are being measured by the following 2 methods. And the results of the depressant action on edema in mouse's ear and depressant action on edema in mouse's foot being induced by carrageenan are shown in Table 5.
1. Measurement of Depressant Action on Edama in Mouse's Ear
At 30 minutes after coating the left ear of ICR mouse, weighing 20 g, with a solution of appropriate amount of sample in 20 μl of mixed solvent DMSO:acetone(1:9), 25 μg of TPA(tetradecanoylphorbol acetate) was coated on both ears. The determination of depressant action on edama was made in 5 hours later by the number of neutral granulocyte gathering in the ear after inducing TPA inflammation. The number of neutral granulocyte was estimated by measuring the activation of myeloperoxidase.

[4] = test system: edema in mouse's foot induced by carrageenan; test: Depressant action on edema in mouse's foot induced by carrageenan; type: in vivo, Male Sprague-Dawley rat; details: po; for inhibition in vivo at 30 mg/kg: 30 mg/kg p.o.; for inhibition in vivo at 50 mg/kg: 50 mg/kg p.o.
Description: as §1
2. Measurement of Depressant Action on Edama in Mouse's Foot Induced by Carrageenan
At 1 hour after oral administering to Male-Sprague-Dawley-white mouse, weighing 150˜200 g, with a suspended solution of appropriate amount of sample in 0.5% of carboxymethyl cellulose and 0.2% of TWEN solution, edema on the right foot of mouse was induced by injecting 0.1 ml(1%) of carrageenan-saline solution. Right after the inducement of edema by carrageenan and 3 hours later, the edema rate was estimated by measuring white mouse's foot volume with Displacement Plethysmometer(Ugo Basile, Italy). Carrageenan injection Drug was administered 1 hour before the carrageenan injection. Depressant rate of edema is produced by the following equation 1.
% Depressant rate of edema=(1 ? Vtreated group/ ? Vcontrol group)×100 ? V: change of foot volume [Equation 1]

[5] = 3 h, read-out: depressant rate of edema rate induced by carrageenan (oral administration), % depression

| SMILES | inhibition at 0.1 µg/mL [1] | inhibition at 1 µg/mL [1] | inhibition at 10 µg/mL [1] | inhibition at 10 µg/mL [2] | depressant rate of ear edema, ED50 [3] | melting point | inhibition in vivo at 30 mg/kg [4, 5] | ED50 ([4]; 3 hours after carrageenan, read-out: depressant rate of edema rate induced by carrageenan (oral administration), ED50) | inhibition in vivo at 50 mg/kg [4, 5] | inhibition in vivo at 3 mg/kg ([4]; 3 h, 3 mg/kg p.o., read-out: depressant rate of edema rate induced by carrageenan (oral administration), % depression) | inhibition at 1 µg/mL ([2]; 1 μg/ml) |
| --- | --- | --- | --- | --- | --- | --- | --- | --- | --- | --- | --- |
| COc1ccc(-c2c(-c3ccc(S(C)(=O)=O)cc3)oc3ccccc3c2=O)cc1 [Example 10, 3-(4-Methoxyphenyl)-2-(4-(methylsulfonyl)phenyl)-4H-1-benzopyran-4-one] | 14% | 67% | 86% | < 5% | 0.6 mg/ear, ED50 | 212 to 213 °C | – | – | – | – | – |
| CS(=O)(=O)c1ccc(-c2oc3ccccc3c(=S)c2-c2ccccc2)cc1 [Example 37, 2-(4-(Methylsulfonyl)phenyl)-3-phenyl-4H-1-benzopyran-4-thione] | 47% | 76% | 88% | < 5% | – | 204 to 206 °C | 16% | – | – | – | – |
| CS(=O)(=O)c1ccc(-c2oc3ccccc3c(=O)c2-c2ccc(Cl)c(Cl)c2)cc1 [Example 11, 3-(3,4-Dichlorophenyl)-2-(4-(methylsulfonyl)phenyl)-4H-1-benzopyran-4-one] | 46% | 89% | – | < 5% | – | 164 to 165 °C | 17% | – | – | – | – |
| CS(=O)(=O)c1ccc(-c2oc3ccccc3c(=S)c2-c2ccc(F)cc2)cc1 [Example 36, 3-(4-Fluorophenyl)-2-(4-(methylsulfonyl)phenyl)-4H-1-benzopyran-4-thione] | 56% | 80% | 100% | < 5% | 1.0 mg/ear, ED50 | – | 20% | – | – | – | – |
| COc1ccc2c(c1)c(CC(=O)O)c(C)n2C(=O)c1ccc(Cl)cc1 [indomethacine, reference compound] | – | – | – | – | 0.4 mg/ear, ED50 | – | – | 4.3 mg/kg | – | – | – |
| CS(=O)(=O)c1ccc(-c2oc3ccccc3c(=O)c2-c2cccnc2)cc1 [Example 15, 2-(4-(Methylsulfonyl)phenyl)-3-(3-pyridinyl)-4H-1-benzopyran-4-one] | – | 83% | 90% | 13% | – | 220 to 221 °C | 41% | – | – | – | – |
| CS(=O)(=O)c1ccc(-c2oc3ccccc3c(=O)c2-c2ccccc2F)cc1 [Example 12, 3-(2-Fluorophenyl)-2-(4-(methylsulfonyl)phenyl)-4H-1-benzopyran-4-one] | – | – | – | – | 0.4 mg/ear, ED50 | – | 20% | – | – | – | – |
| CS(=O)(=O)c1ccc(-c2oc3ccccc3c(=O)c2-c2ccc(F)cc2)cc1 [Example 1, 3-(4-Fluorophenyl)-2-(4-(methylsulfonyl)phenyl)-4H-1-benzo-pyran-4-one] | 94% | 100% | – | < 5% | 0.4 mg/ear, ED50 | – | – | – | 43% | – | – |
| CS(=O)(=O)c1ccc(-c2oc3ccccc3c(=O)c2-c2ccc(F)c(Cl)c2)cc1 [Example 26, 3-(3-Chloro-4-fluorophenyl)-2-(4-(methylsulfonyl)phenyl)-4H-1-benzopyran-4-one] | – | – | – | – | 0.6 mg/ear, ED50 | – | – | – | 23% | – | – |
| CS(=O)(=O)c1ccc(-c2oc3ccc(F)cc3c(=O)c2-c2cccnc2)cc1 [Example 34, 6-Fluoro-2-(4-(methylsulfonyl)phenyl)-3-(3-pyridinyl)-4H-1-benzopyran-4-one] | – | 66% | 78% | 12% | – | – | – | – | – | 23% | – |
| NS(=O)(=O)c1ccc(-c2oc3ccccc3c(=O)c2-c2ccc(F)cc2)cc1 [Example 52, 2-(4-(Aminosulfonyl)phenyl)-3-(4-fluorophenyl)-4H-1-benzopyran-4-one] | 73% | 96% | 99% | 67% | – | 267 to 268 °C | – | – | – | – | 62% |
| Cn1ccc(-c2c(-c3ccc(S(C)(=O)=O)cc3)oc3ccccc3c2=O)n1 [Example 17, 3-(N-methyl-3-pyrazolyl)-2-(4-(methylsulfonyl)phenyl)-4H-1-benzopyran-4-one] | – | – | 13% | < 5% | – | 202 to 203 °C | – | – | – | – | – |
| CS(=O)(=O)c1ccc(-c2oc3ccccc3c(=O)c2-c2ccc(Br)cc2)cc1 [Example 28, 3-(4-Bromophenyl)-2-(4-(methylsulfonyl)phenyl)-4H-1-benzopyran-4-one] | – | – | – | – | 0.8 mg/ear, ED50 | – | – | – | – | – | – |
| CS(=O)(=O)c1ccc(-c2oc3ccccc3c(=O)c2-c2cccc([N+](=O)[O-])c2)cc1 [Example 4, 2-(4-(methylsulfonyl)phenyl)-3-(3-nitrophenyl)-4H-1-benzopyran-4-one] | – | – | < 5% | < 5% | – | 223 to 224 °C | – | – | – | – | – |
